In patent US7862837B2, “Herbal composition” (Piramal Life Sciences Limited, priority 2006, dated 2011):
Converted amounts (≈) assume the structure as drawn.

Tests used:
[1] = tested on: TNF-α; assay: LPS-induced TNF-α production in hPBMCs (primary screening, ELISA); type: cell-based, human; settings: LPS-stimulated hPBMCs
Procedure: (§1) TNF-α production by lipopolysaccharides (LPS) in hPBMCs was measured according to the method described by Jansky, L. et al (Physiol. Res. 52: 593-598, (2003)). Blood was collected from healthy donors into Ethylene diamine tetra acetic acid Potassium salt (Potassium EDTA) vacutainer tubes (BD vacutainer). The PBMCs were isolated using gradient centrifugation in Histopaque-1077 solution (Sigma). Isolated PBMCs were suspended in Roswell Park Memorial Institute (RPMI) 1640 culture medium (Gibco BRL, Pasley, UK) containing 10% fetal bovine serum (FBS) (Hyclone, Utah, USA), 100 U/ml penicillin (Sigma Chemical Co. St Louis, Mo.) and 100 μg/ml streptomycin (Sigma Chemical Co. St Louis, Mo.). The cell concentration was adjusted to 1×10^6 cells/ml. The viability as determined by trypan blue dye exclusion was uniformly ≧98%. The cell suspension (100 μl) was added to the wells of a 96-well culture plate. Following cell plating, 79 μl of the culture medium and 1 μl of eight different concentrations of the test compounds (final concentration 0.03, 0.1, 0.3, 1, 3, 10, 30, 100 μg/ml) dissolved in dimethylsulfoxide, (DMSO) Sigma, Mo., USA) were added to the cells. The final concentration of DMSO was adjusted to 0.5%. The vehicle (0.5% DMSO) was used as control. Rolipram (100, 300 μM) was used as a standard. The plates were incubated for 30 min at 37° C. in an atmosphere of 5% carbon dioxide (CO2). Finally, 20 μl (10 μg/ml) per well of LPS, (Escherchia coli 0127:B8, Sigma Chemical Co., St. Louis, Mo.) was added, for a final concentration of 1 μg/ml. The plates were incubated at 37° C. for 5 h in an atmosphere of 5% carbon dioxide (CO2). To assess the cytotoxic effect of the plant extracts, the cellular viability test was performed using 3-(4,5-dimethylthiazol-2-yl)-5-(3-carboxymethoxyphenyl)-2-(4-sulfonyl)-2H-tetrazolium) (MTS) reagent after 5 h of incubation. Supernatants were harvested and assayed for TNF-α by ELISA as described by the manufacturer (OptiElA ELISA sets, BD Biosciences, Pharmingen). […] Percent cytotoxicity of the test compound compared to control is evaluated.

[2] = tested on: human peripheral blood mononuclear cells; assay: Cellular viability test (MTS) in hPBMCs; type: cell-based
Procedure: as §1, with “standard.” for “standard. The plates were incubated for 30 min at 37° C. in an atmosphere of 5% carbon dioxide (CO2). Finally, 20 μl (10 μg/ml) per well of LPS, (Escherchia coli 0127:B8, Sigma Chemical Co., St. Louis, Mo.) was added, for a final concentration of 1 μg/ml. The plates were incubated at 37° C. for 5 h in an atmosphere of 5% carbon dioxide (CO2). To assess the cytotoxic effect of the plant extracts, the cellular viability test was performed using 3-(4,5-dimethylthiazol-2-yl)-5-(3-carboxymethoxyphenyl)-2-(4-sulfonyl)-2H-tetrazolium) (MTS) reagent after 5 h of incubation. Supernatants were harvested and assayed for TNF-α by ELISA as described by the manufacturer (OptiElA ELISA sets, BD Biosciences, Pharmingen).”

[3] = tested on: interleukin-1β (IL-1β); assay: IL-1β released by LPS-stimulated hPBMCs (ELISA); type: cell-based, human
Procedure: TNF-α production by lipopolysaccharides (LPS) in hPBMCs was measured according to the method described by Jansky, L. et al (Physiol. Res. 52: 593-598, (2003)). Blood was collected from healthy donors into Ethylene diamine tetra acetic acid Potassium salt (Potassium EDTA) vacutainer tubes (BD vacutainer). The PBMCs were isolated using gradient centrifugation in Histopaque-1077 solution (Sigma). Isolated PBMCs were suspended in Roswell Park Memorial Institute (RPMI) 1640 culture medium (Gibco BRL, Pasley, UK) containing 10% fetal bovine serum (FBS) (Hyclone, Utah, USA), 100 U/ml penicillin (Sigma Chemical Co. St Louis, Mo.) and 100 μg/ml streptomycin (Sigma Chemical Co. St Louis, Mo.). The cell concentration was adjusted to 1×10^6 cells/ml. The viability as determined by trypan blue dye exclusion was uniformly ≧98%. The cell suspension (100 μl) was added to the wells of a 96-well culture plate. […] Percent cytotoxicity of the test compound compared to control is evaluated.
The effect of the plant extract on the proinflammatory cytokines: interleukin-1β (IL-1β), interleukin-6 (IL-6) and interleukin-8 (IL-8) was measured using the supernatants generated in the primary screening assay. […]

Row | IC50, TNF-α inhibition [1] | IC50 against IL-1 [3] | SMILES | inhibition at 100 µM ([1]; Homo sapiens, 100 μM, read-out: % Inhibition of TNF-α release) | inhibition at 300 µM ([1]; Homo sapiens, 300 μM, read-out: % Inhibition of TNF-α release) | % Toxicity 5 h ([2]; 100 μM) | % Toxicity 5 h ([2]; 300 μM)
1 |  |  | COc1ccc(C2CNC(=O)C2)cc1OC1CCCC1 (stereo not drawn) [Rolipram] | 100% | 100% | 2% | 10%
2 | 5.9 µg/mL (≈ 18.5 µM) | 0.4 µg/mL (≈ 1.26 µM) | CC1=CCCC2C1(C)CCC(C)C2(C)CCC1=CC(=O)OC1O (stereo not drawn) [Compound 1, 16-hydroxycleroda-3,13(14)-dien-15,16-olide] |  |  |  | 
